Measurements from patent publication US20130030017A1, “QUINOLINE DERIVATIVES AS ANTIBACTERIAL AGENTS” (priority 2005, published 2013).
Values after ≈ are worked out from the molar mass of the structure shown.

Key:
[1] = test system: Streptococcus pneumoniae (ATCC6305); assay: Microtitre plate assay, IC90 determination (SPN 6305); format: cell-based; details: 90% inhibitory concentration for bacterial growth, 37° C., resazurin fluorescence; for IC90 SPN 6305: 24 hours; for IC90: Streptococcus pneumoniae, ATCC6305, 24 h
Method: (§1) The bacteria used in this study were grown overnight in flasks containing 100 ml Mueller-Hinton Broth (Becton Dickinson—cat. no. 275730) in sterile de-ionized water, with shaking, at 37° C. Stocks (0.5 ml/tube) were stored at −70° C. until use. Bacteria titrations were performed in microtiter plates and colony forming units (CFUs) were determined. In general, an inoculum level of approximately 100 CFUs was used for susceptibility testing.
(§2) Flat-bottom, sterile 96-well plastic microtiter plates were filled with 180 μl of sterile deionized water, supplemented with 0.25% BSA. Subsequently, stock solutions (7.8× final test concentration) of compounds were added in 45 μl volumes in column 2 Serial five-fold dilutions (45 μl in 180 μl) were made directly in the microtiter plates from column 2 to reach column 11. Untreated control samples with (column 1) and without (column 12) inoculum were included in each microtiter plate. Depending on the bacteria type, approximately 10 to 60 CFU per well of bacteria inoculum (100 TCID50), in a volume of 100 μl in 2.8× Mueller-Hinton broth medium, was added to the rows A to H, except column 12. The same volume of broth medium without inoculum was added to column 12 in row A to H. The cultures were incubated at 37° C. for 24 hours under a normal atmosphere (incubator with open air valve and continuous ventilation). At the end of incubation, one day after inoculation, the bacterial growth was quantitated fluorometrically. Therefore resazurin (0.6 mg/ml) was added in a volume of 20 μl to all wells 3 hours after inoculation, and the plates were re-incubated overnight. A change in colour from blue to pink indicated the growth of bacteria. The fluorescence was read in a computer-controlled fluorometer (Cytofluor Biosearch) at an excitation wavelength of 530 nm and an emission wavelength of 590 nm. The % growth inhibition achieved by the compounds was calculated according to standard methods. The IC90 (expressed in μg/ml) was defined as the 90% inhibitory concentration for bacterial growth.

[2] = test system: Staphylococcus aureus (ATCC29213); assay: Microtitre plate assay, IC90 determination (STA 29213); format: cell-based; details: 90% inhibitory concentration for bacterial growth, 37° C., resazurin fluorescence; for IC90 STA 29213: 24 hours; for IC90: Staphylococcus aureus, ATCC29213, 24 h
Method: as §1, §2

[3] = test system: Pseudomonas aeruginosa (ATCC27853); assay: Microtitre plate assay, IC90 determination (PAE 27853); format: cell-based; details: 90% inhibitory concentration for bacterial growth, 37° C., resazurin fluorescence; for IC90 PAE 27853: 24 hours
Method: as §1, §2

[4] = test system: Streptococcus pyogens (ATCC8668); assay: Microtitre plate assay, IC90 determination (SPY 8668); format: cell-based; details: 90% inhibitory concentration for bacterial growth, 37° C., resazurin fluorescence; for IC90 SPY 8668: 24 hours; for IC90: Streptococcus, ATCC8668, 24 h
Method: as §1, §2

[5] = test system: methicilline resistant Staphylococcus aureus (MRSA) (a clinical isolate from the University of Antwerp); assay: Microtitre plate assay, IC90 determination (STA RMETH); format: cell-based; details: 90% inhibitory concentration for bacterial growth, 37° C., 24 hours, resazurin fluorescence
Method: as §1, §2

[6] = test system: Listeria monocytogenes (ATCC49594); assay: Microtitre plate assay, IC90 determination (LMO 49594); format: cell-based; details: 90% inhibitory concentration for bacterial growth, 37° C., 24 hours, resazurin fluorescence
Method: as §1, §2

[7] = test system: Bacillus subtilis (ATCC43639); assay: Microtitre plate assay, IC90 determination (BSU 43639); format: cell-based; details: 90% inhibitory concentration for bacterial growth, 37° C., 24 hours, resazurin fluorescence
Method: as §1, §2

[8] = test system: Enterococcus faecalis (ATCC29212); assay: Microtitre plate assay, IC90 determination (EFA 29212); format: cell-based; details: 90% inhibitory concentration for bacterial growth, 37° C., resazurin fluorescence; for IC90 EFA 29212: 24 hours
Method: as §1, §2

[9] = test system: Staphylococcus aureus (ATCC25923); assay: Microtitre plate assay, IC90 determination (STA 25923); format: cell-based; details: 90% inhibitory concentration for bacterial growth, 37° C., 24 hours, resazurin fluorescence
Method: as §1
Flat-bottom, sterile 96-well plastic microtiter plates were filled with 180 μl of sterile deionized water, supplemented with 0.25% BSA. Subsequently, stock solutions (7.8× final test concentration) of compounds were added in 45 μl volumes in column 2 Serial five-fold dilutions (45 μl in 180 μl) were made directly in the microtiter plates from column 2 to reach column 11. Untreated control samples with (column 1) and without (column 12) inoculum were included in each microtiter plate. […] At the end of incubation, one day after inoculation, the bacterial growth was quantitated fluorometrically. […] The fluorescence was read in a computer-controlled fluorometer (Cytofluor Biosearch) at an excitation wavelength of 530 nm and an emission wavelength of 590 nm. The % growth inhibition achieved by the compounds was calculated according to standard methods. […]

Row | IC90 SPN 6305 [1] [µg/mL] | IC90 ([3]; Pseudomonas aeruginosa, ATCC27853, 24 h) [µg/mL] | IC90 [4] [µg/mL] | IC90 [6] [µg/mL] | melting point [°C] | IC90 ([8]; Enterococcus faecalis, ATCC29212, 24 h) [µg/mL] | IC90 [1] [µg/mL] | IC90 [2] [µg/mL] | Structure (SMILES) | IC90 STA 29213 [2] [µg/mL] | IC90 PAE 27853 [3] [µg/mL] | IC90 SPY 8668 [4] [µg/mL] | IC90 STA RMETH [5] [µg/mL] | IC90 LMO 49594 [6] [µg/mL] | IC90 BSU 43639 [7] [µg/mL] | IC90 EFA 29212 [8] [µg/mL] | IC90 [5] [µg/mL] | IC90 STA 25923 [9] [µg/mL]
1 | 11.6 (≈ 19.9 µM) | 2.3 (≈ 3.94 µM) | 1.9 (≈ 3.26 µM) | 1.9 (≈ 3.26 µM) | 160 | 1.9 (≈ 3.26 µM) | – | – | COc1nc2ccc(Br)cc2cc1C(c1ccccc1)C(O)(CCc1cccc2ccccc12)CCN(C)C (stereo not shown) [Compound 8] | 1.9 (≈ 3.26 µM) | – | – | – | – | – | – | 1.9 (≈ 3.26 µM) | –
2 | – | – | 1.7 (≈ 3.1 µM) | – | – | – | 0.8 (≈ 1.46 µM) | – | COc1nc2ccc(Br)cc2cc1C(c1ccc(C)cc1)C(O)(CCc1ccccc1)CCN(C)C (stereo not shown) [Compound 65] | 3.9 (≈ 7.12 µM) | 1.7 (≈ 3.1 µM) | – | – | – | – | 1.7 (≈ 3.1 µM) | 10.9 (≈ 19.9 µM) | –
3 | 0.5 (≈ 0.88 µM) | – | – | – | – | – | – | 1.8 (≈ 3.17 µM) | COc1nc2ccc(Br)cc2cc1C(c1ccc(Cl)cc1)C(O)(CCc1ccccc1)CCN(C)C (stereo not shown) [Compound 69] | – | 1.8 (≈ 3.17 µM) | 4.0 (≈ 7.04 µM) | – | – | – | 1.8 (≈ 3.17 µM) | 12.7 (≈ 22.4 µM) | –
4 | 1.8 (≈ 3.19 µM) | – | – | – | – | – | – | – | COc1ccc(C(c2cc3cc(Br)ccc3nc2OC)C(O)(CCc2ccccc2)CCN(C)C)cc1 (stereo not shown) [Compound 74] | 1.8 (≈ 3.19 µM) | 1.8 (≈ 3.19 µM) | 1.8 (≈ 3.19 µM) | – | – | – | 1.8 (≈ 3.19 µM) | 12.6 (≈ 22.4 µM) | –

Continued, compound first:

Row | Structure (SMILES) | IC90 SPN 6305 [1] [µg/mL] | IC90 ([3]; Pseudomonas aeruginosa, ATCC27853, 24 h) [µg/mL] | IC90 [4] [µg/mL] | IC90 [6] [µg/mL] | melting point [°C] | IC90 ([8]; Enterococcus faecalis, ATCC29212, 24 h) [µg/mL] | IC90 [1] [µg/mL] | IC90 [2] [µg/mL] | IC90 STA 29213 [2] [µg/mL] | IC90 PAE 27853 [3] [µg/mL] | IC90 SPY 8668 [4] [µg/mL] | IC90 STA RMETH [5] [µg/mL] | IC90 LMO 49594 [6] [µg/mL] | IC90 BSU 43639 [7] [µg/mL] | IC90 EFA 29212 [8] [µg/mL] | IC90 [5] [µg/mL] | IC90 STA 25923 [9] [µg/mL]
5 | COc1nc2ccc(Br)cc2cc1C(c1ccccc1)C(O)(CCc1ccc(F)cc1)CCN(C)C (racemic) [Compound 50] | 0.4 (≈ 0.725 µM) | – | – | – | – | – | – | – | 1.7 (≈ 3.08 µM) | 1.7 (≈ 3.08 µM) | 1.7 (≈ 3.08 µM) | 8.7 (≈ 15.8 µM) | 8.7 (≈ 15.8 µM) | 9.8 (≈ 17.8 µM) | 1.7 (≈ 3.08 µM) | – | –
6 | COc1nc2ccc(Br)cc2cc1C(c1ccccc1)C(O)(CCc1ccccc1)CCN(C)C (racemic) [Compound 15] | 7.5 (≈ 14.1 µM) | – | – | – | – | – | – | – | 4.8 (≈ 9 µM) | 4.8 (≈ 9 µM) | 4.2 (≈ 7.87 µM) | 10.6 (≈ 19.9 µM) | 2.1 (≈ 3.94 µM) | 10.6 (≈ 19.9 µM) | 4.8 (≈ 9 µM) | – | 4.8 (≈ 9 µM)
7 | COc1nc2ccc(Br)cc2cc1C(c1ccccc1)C(O)(CCc1ccc(F)cc1)CCN1CCCCC1 (stereo not shown) [Compound 34] | 9.4 (≈ 15.9 µM) | – | – | – | 194 | – | – | – | 59.2 (≈ 100 µM) | – | – | – | – | – | – | – | –
8 | COc1nc2ccccc2cc1C(c1ccccc1)C(O)(CCc1ccccc1)CCN(C)C (stereo not shown) [Compound 12] | – | – | – | – | 122 | – | 9.1 (≈ 20 µM) | 10.2 (≈ 22.4 µM) | – | – | – | – | – | – | – | – | –
9 | COc1nc2ccc(Br)cc2cc1C(c1ccccc1)C(O)(CCc1ccccc1)CCN(C)C (racemic) [Compound 14] | 42.4 (≈ 79.5 µM) | – | – | – | – | – | – | – | 13.4 (≈ 25.1 µM) | 9.5 (≈ 17.8 µM) | 10.6 (≈ 19.9 µM) | 13.4 (≈ 25.1 µM) | 10.6 (≈ 19.9 µM) | 13.4 (≈ 25.1 µM) | 9.5 (≈ 17.8 µM) | – | 11.9 (≈ 22.3 µM)
10 | COc1nc2ccc(Br)cc2cc1C(c1ccccc1)C(O)(CCc1ccc(C)cc1)CCN(C)C (racemic) [Compound 53] | 1.7 (≈ 3.1 µM) | – | – | – | – | – | – | – | 1.7 (≈ 3.1 µM) | 3.9 (≈ 7.12 µM) | 1.7 (≈ 3.1 µM) | 13.8 (≈ 25.2 µM) | – | – | 6.9 (≈ 12.6 µM) | – | –
11 | CSc1nc2ccc(Br)cc2cc1C(c1ccccc1)C(O)(CCc1ccccc1)CCN(C)C (stereo not shown) [Compound 10] | 9.8 (≈ 17.8 µM) | – | – | – | 191 | – | – | 13.8 (≈ 25.1 µM) | – | – | – | – | – | – | – | – | –
